Measured values taken from patent US7342011B2, “Rifamycin analogs and uses thereof” (priority 2003, dated 2008).
In brackets after ≈: the same amount, converted by molar mass.

Tests used:
Format in all cases: cell-based
E. faecalis = experiment: MIC assay, E. faecalis
S. pneumo. = experiment: MIC assay, S. pneumo.
E. coli = experiment: MIC assay, E. coli
H. flu = experiment: MIC assay, H. flu
S. aureus = experiment: MIC assay, S. aureus

| Structure (SMILES) | MIC (μg/mL) E. faecalis (E. faecalis) [µg/mL] | MIC (μg/mL) S. pneumo. (S. pneumo.) [µg/mL] | MIC (μg/mL) E. coli (E. coli) [µg/mL] | MIC (μg/mL) H. flu (H. flu) [µg/mL] | MIC (μg/mL) S. aureus (S. aureus) [µg/mL] |
| --- | --- | --- | --- | --- | --- |
| CO[C@H]1/C=C/O[C@@]2(C)Oc3c(C)c(O)c4c(=O)c(c5sc6cc(N7C[C@@H](C)N[C@@H](C)C7)ccc6nc-5c4c3C2=O)NC(=O)/C(C)=C\C=C\[C@H](C)[C@H](O)[C@@H](C)[C@@H](O)[C@@H](C)[C@H](OC(C)=O)[C@@H]1C [Compound 64, 5′-[(3R,5S)-3,5-dimethyl-1-piperazinyl]benzthiazinorifamycin] | 0.12 (≈ 0.131 µM) | 0.00012 (≈ 0.000131 µM) | 4 (≈ 4.38 µM) | 0.25 (≈ 0.274 µM) | 0.004 (≈ 0.00438 µM) |
| CO[C@H]1/C=C/O[C@@]2(C)Oc3c(C)c(O)c4c(=O)c(c5oc6cc(N7CCC(CCO)CC7)cc(O)c6nc-5c4c3C2=O)NC(=O)/C(C)=C\C=C\[C@H](C)[C@H](O)[C@@H](C)[C@@H](O)[C@@H](C)[C@H](OC(C)=O)[C@@H]1C [Compound 61, 3′-hydroxy-5′-[4-(2-hydroxyethyl)-1-piperidinyl]benzoxazinorifamycin] | 1 (≈ 1.08 µM) | 0.00012 (≈ 0.000129 µM) | >8 | 0.25 (≈ 0.269 µM) | 0.004 (≈ 0.00431 µM) |
| CO[C@H]1/C=C/O[C@@]2(C)Oc3c(C)c(O)c4c(=O)c(c5oc6cc(N7C[C@@H]8CCCN(C)[C@@H]8C7)cc(O)c6nc-5c4c3C2=O)NC(=O)/C(C)=C\C=C\[C@H](C)[C@H](O)[C@@H](C)[C@@H](O)[C@@H](C)[C@H](O)[C@@H]1C [Compound 59, 25-O-deacetyl-3′-hydroxy-5′-[1-methyl-(4aS,7aS)-octahydro-6H-pyrrolo[3,4-b]pyridin-6-yl]benzoxazinorifamycin] | 0.06 (≈ 0.0669 µM) | 0.001 (≈ 0.00111 µM) | 4 (≈ 4.46 µM) | 0.12 (≈ 0.134 µM) | 0.004 (≈ 0.00446 µM) |
| CCCS(=O)(=O)NC1CCN(c2cc(O)c3nc4c5c6c7c(C)c(O)c5c(=O)c(c-4oc3c2)NC(=O)/C(C)=C\C=C\[C@H](C)[C@H](O)[C@@H](C)[C@@H](O)[C@@H](C)[C@H](OC(C)=O)[C@H](C)[C@@H](OC)/C=C/O[C@@](C)(O7)C6=O)CC1 [Compound 35] | 4 (≈ 3.98 µM) | 0.00025 (≈ 0.000249 µM) | 8 (≈ 7.96 µM) | 0.5 (≈ 0.497 µM) | 0.015 (≈ 0.0149 µM) |
| CO[C@H]1/C=C/O[C@@]2(C)Oc3c(C)c(O)c4c(=O)c(c5sc6cc(N7CCN8CCC[C@H]8C7)ccc6nc-5c4c3C2=O)NC(=O)/C(C)=C\C=C\[C@H](C)[C@H](O)[C@@H](C)[C@@H](O)[C@@H](C)[C@H](OC(C)=O)[C@@H]1C [Compound 76, 5′-[(8aS)octahydropyrrolo[1,2-a]pyrazin-2-yl]benzthiazinorifamycin] | 0.5 (≈ 0.54 µM) | 0.00025 (≈ 0.00027 µM) | 4 (≈ 4.32 µM) | 0.25 (≈ 0.27 µM) | 0.008 (≈ 0.00865 µM) |
| COC1C=COC2(C)Oc3c(C)c(O)c4c(=O)c(c5oc6cc(N7CCC(NC(=O)OC(C)C)CC7)cc(O)c6nc-5c4c3C2=O)NC(=O)C(C)=CC=CC(C)C(O)C(C)C(O)C(C)C(O)C1C (stereo not drawn) [Compound 29, 25-O-deacetyl-3′-hydroxy-5′-[4-isopropylcarbamyl-1-piperidinyl]benzoxazinorifamycin] | 2 (≈ 2.12 µM) | 0.00012 (≈ 0.000127 µM) | >8 | 1 (≈ 1.06 µM) | 0.008 (≈ 0.00848 µM) |
| CO[C@H]1/C=C/O[C@@]2(C)Oc3c(C)c(O)c4c(=O)c(c5oc6cc(N7CCC(CCO)CC7)cc(O)c6nc-5c4c3C2=O)NC(=O)/C(C)=C\C=C\[C@H](C)[C@H](O)[C@@H](C)[C@@H](O)[C@@H](C)[C@H](O)[C@@H]1C [Compound 66, 25-O-deacetyl-3′-hydroxy-5′-[4-(2-hydroxyethyl)-1-piperidinyl]benzoxazinorifamycin] | 0.12 (≈ 0.135 µM) | 0.0005 (≈ 0.000564 µM) | 4 (≈ 4.51 µM) | 0.12 (≈ 0.135 µM) | 0.004 (≈ 0.00451 µM) |
| CO[C@H]1/C=C/O[C@@]2(C)Oc3c(C)c(O)c4c(=O)c(c5oc6cc(N7CCC(C)(N(C)C)CC7)cc(O)c6nc-5c4c3C2=O)NC(=O)/C(C)=C\C=C\[C@H](C)[C@H](O)[C@@H](C)[C@@H](O)[C@@H](C)[C@H](OC(C)=O)[C@@H]1C [Compound 71, 3′-hydroxy-5′-[4-methyl-4-N,N-dimethylamino-1-piperidinyl]benzoxazinorifamycin] | 0.25 (≈ 0.266 µM) | 0.00012 (≈ 0.000128 µM) | 4 (≈ 4.25 µM) | 0.5 (≈ 0.531 µM) | 0.008 (≈ 0.0085 µM) |
| CO[C@H]1/C=C/O[C@@]2(C)Oc3c(C)c(O)c4c(=O)c(c5oc6cc(N7CCC(NC(C)=O)CC7)cc(O)c6nc-5c4c3C2=O)NC(=O)/C(C)=C\C=C\[C@H](C)[C@H](O)[C@@H](C)[C@@H](O)[C@@H](C)[C@H](OC(C)=O)[C@@H]1C [Compound 44] | 2 (≈ 2.13 µM) | 0.008 (≈ 0.0085 µM) | >8 | 0.25 (≈ 0.266 µM) | 0.06 (≈ 0.0638 µM) |
| CO[C@H]1/C=C/O[C@@]2(C)Oc3c(C)c(O)c4c(=O)c(c5oc6cc(N7CC[C@@H](N(C)C)C7)cc(O)c6nc-5c4c3C2=O)NC(=O)/C(C)=C\C=C\[C@H](C)[C@H](O)[C@@H](C)[C@@H](O)[C@@H](C)[C@H](OC(C)=O)[C@@H]1C [Compound 75, 3′-hydroxy-5′-[(3R)-N,N-dimethylamino-1-pyrrolidinyl]benzoxazinorifamycin] | 0.12 (≈ 0.131 µM) | 0.00012 (≈ 0.000131 µM) | 4 (≈ 4.38 µM) | 0.25 (≈ 0.274 µM) | 0.002 (≈ 0.00219 µM) |
| CO[C@H]1/C=C/O[C@@]2(C)Oc3c(C)c(O)c4c(=O)c(c5oc6cc(N7C[C@@H]8CCCN(C)[C@@H]8C7)cc(O)c6nc-5c4c3C2=O)NC(=O)/C(C)=C\C=C\[C@H](C)[C@H](O)[C@@H](C)[C@@H](O)[C@@H](C)[C@H](OC(C)=O)[C@@H]1C [Compound 58, 3′-hydroxy-5′-[1-methyl-(4aS,7aS)-octahydro-6H-pyrrolo[3,4-b]pyridin-6-yl]benzoxazinorifamycin] | 1 (≈ 1.06 µM) | 0.004 (≈ 0.00426 µM) | >8 | 0.25 (≈ 0.266 µM) | 0.03 (≈ 0.0319 µM) |
| CO[C@H]1/C=C/O[C@@]2(C)Oc3c(C)c(O)c4c(=O)c(c5oc6cc(N7CCC(NC(=O)N8CCC(NC(=O)SC)CC8)CC7)cc(O)c6nc-5c4c3C2=O)NC(=O)/C(C)=C\C=C\[C@H](C)[C@H](O)[C@@H](C)[C@@H](O)[C@@H](C)[C@H](OC(C)=O)[C@@H]1C [Compound 49, 3′-hydroxy-5′-[4-(4-(S-methylthiocarbamyl)-1-piperidinylcarbonyl)amino-1-piperidinyl]benzoxazinorifamycin] | 8 (≈ 7.28 µM) | 0.0005 (≈ 0.000455 µM) | >8 | 2 (≈ 1.82 µM) | 0.06 (≈ 0.0546 µM) |
